The assay has as its target T1, human Tpo-R (Homo sapiens, UniProt P40238).
T1 construct: expressed in transfected cells; host or cells: murine BaF3 cell line
T1 sequence (P40238 26-635): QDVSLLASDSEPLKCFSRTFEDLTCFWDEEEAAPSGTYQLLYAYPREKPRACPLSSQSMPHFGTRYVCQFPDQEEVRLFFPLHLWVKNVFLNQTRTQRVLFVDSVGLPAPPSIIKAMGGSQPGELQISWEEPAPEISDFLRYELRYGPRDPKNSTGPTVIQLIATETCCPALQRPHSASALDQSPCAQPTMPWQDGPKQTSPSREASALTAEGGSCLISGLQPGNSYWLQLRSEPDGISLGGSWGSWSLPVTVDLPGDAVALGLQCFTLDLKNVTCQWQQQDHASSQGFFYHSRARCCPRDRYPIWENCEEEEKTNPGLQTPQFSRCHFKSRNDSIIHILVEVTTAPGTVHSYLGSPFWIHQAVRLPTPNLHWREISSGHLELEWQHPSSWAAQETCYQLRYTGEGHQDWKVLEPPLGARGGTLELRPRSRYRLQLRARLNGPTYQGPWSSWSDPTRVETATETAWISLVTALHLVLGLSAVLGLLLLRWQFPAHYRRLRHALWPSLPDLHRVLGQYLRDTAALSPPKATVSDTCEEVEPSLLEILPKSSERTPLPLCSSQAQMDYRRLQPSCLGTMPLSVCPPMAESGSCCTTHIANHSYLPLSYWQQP
In words: BaF3/hTPO-R in vitro proliferation assay. It counts as cell-based. As to conditions: murine BaF3 cell line transfected with human Tpo-R. The procedure: Compounds of the present invention were tested for potency as mimetics of TPO in an in vitro proliferation assay using the murine BaF3 cell line transfected with human Tpo-R. Survival and growth is dependent on the presence of TPO.

The molecule `CC1=NN(C2CCCCC2)C(=O)C1=NNc1cccc(-c2cccc(C(=O)O)c2)c1O` [Example 1, 3′-[N′-(1-cyclohexyl-3-methyl-5-oxo-1,5-dihydro-pyrazol-4-ylidene)-hydrazino]-2′-hydroxy-biphenyl-3-carboxylic acid] gave an EC50 of 800 nM. For the same molecule, the “activity, % TPO” value (relative to TPO) is 160 % TPO.

The term EC50 denotes the concentration at which the effect is half-maximal.
